Source: article PMC12333015, “Profiling the Impact of mGlu7/Elfn1 Protein Interactions on the Pharmacology of mGlu7 Allosteric Modulators” (ACS Chemical Neuroscience, 2025)
pEC50: −log10 of the molar value.

Legend:
rat mGlu7 = molecular target: T1, rat mGlu7 (Rattus norvegicus, UniProt P35400); test: Thallium flux assay, mGlu7/GIRK HEK293 cells cocultured with pcDNA3 vector control cells; type: cell-based; conditions: L-AP4 pEC50 ± SEM, pcDNA, DMSO vehicle
T1 construct: expressed in transfected cells; host or cells: HEK293A cells stably expressing mGlu7 and GIRK1/2
Text: We began our evaluation of mGlu7 ligands in the presence and absence of Elfn1 by using a coculture system as previously described , with several modifications (Figure ). Cells expressing rat mGlu7 and coexpressing G protein inwardly rectifying potassium (GIRK) channels 1 and 2 were cocultured with cells expressing either an empty pcDNA3 vector control or a plasmid containing Elfn1 in the pcDNA3 backbone. We then evaluated the activity of the orthosteric agonist L-AP4 and measured effects on maximal response and pEC50. All responses were normalized to the maximal effect of L-AP4 in the presence of the pcDNA3 control plasmid.
2 Assay design and workflow. (Left panel) Cells expressing rat mGlu7/GIRK (pink) were cocultured with pcDNA3 (blue) or Elfn1 (purple). […] (Right panel) The effect on the concentration–response curve in the presence (purple) or absence (blue) of Elfn1 can be seen by a change in efficacy, potency, and/or basal response.
HEK293A cells stably expressing mouse Elfn1 or pcDNA3 were maintained in growth medium containing 90% Dulbecco’s Modified Eagle Media (DMEM), 10% fetal bovine serum (FBS), 100 units/mL penicillin/streptomycin, 20 mM HEPES, 1 mM sodium pyruvate, 2 mM L-glutamine, 1× nonessential amino acids, and 700 μg/mL G418 sulfate. HEK mGlu7/GIRK cells were maintained in a growth medium with 90% DMEM/F12, 10% dialyzed FBS, 100 units/mL penicillin/streptomycin, 20 mM HEPES, 1 mM sodium pyruvate, 2 mM L-glutamine, 1× nonessential amino acids, 700 μg/mL G418 sulfate, and 600 ng/mL puromycin. All cell culture reagents were purchased from Invitrogen (Carlsbad, CA).
Thallium flux assays were performed as previously described. A mixture of HEK293A mGlu7/GIRK cells and pcDNA3 or Elfn1-expressing HEK293A cells (5000/15,000 cells/20 μL/well for agonist and PAM experiments; 7500/15,000 cells/20 μL/well for NAM experiments) was seeded in 384-well, amine-coated assay plates (Greiner Bio-One, Monroe, NC). Cells were incubated overnight in a humidified 5% CO2 cell culture incubator at 37 °C. […] Following a 1 h incubation at room temperature, the dye loading solution was replaced with 20 μL/well assay buffer and the plates were loaded into a Hamamatsu FDSS 7000 (Bridgewater, NJ). […] Thallium flux data were analyzed by first dividing each point in each wave by the first point in that wave and then subtracting the average of the vehicle control response. The slopes of these vehicle control-subtracted waves were calculated over ten data points beginning 2 s after thallium stimulus addition and fit to a three-parameter logistic equation in GraphPad Prism (La Jolla, CA). In most cases, the final data were normalized to the response of the mGlu7/pcDNA3 with vehicle and 5 mM L-AP4 unless otherwise noted. Potency (pEC50) and maximum responses (E max) induced by compounds were determined using a four-parameter logistical equation in Prism. Basal activity was calculated with data points at the three lowest test concentrations. Maximum activity was calculated with data points at two highest concentrations. All experiments were replicated at least three times in duplicate or triplicate.

[1] = test system: pyramidal cell to SST-IN synapses in the prefrontal cortex; test: Ex vivo whole-cell electrophysiology, eEPSCs recorded from SST-INs in prefrontal cortex slices; type: cell-based, mouse; conditions: 30 μM L-AP4 alone, bath applied
Text: Shown in Figure A are representative traces of eEPSCs recorded from SST-INs in response to 5-pulse stimulation with baseline in black, illustrating the characteristic facilitating nature of pyramidal cell (PYR) to SST-IN synapses.
Transgenic mice (both male and female) expressing tdTomato fluorescent protein in SST-INs were used in this study. They were generated by crossing female homozygous SST-Cre (Sst^tm2.1(cre)Zjh/J, Stock #: 013044, Jackson Laboratories) with male homozygous Ai9 mice (B6;Cg-Gt(Rosa)-26Sor^tm9(CAG‑tdTomato)Hze/J, Stock #: 007909, Jackson Laboratories). All animals were group housed with food and water available ad libitum, kept under a 12 h light/dark cycle with lights on from 6:00 AM to 6:00 PM, and were used for experiments during the light phase. All of the experimental procedures were approved by the Vanderbilt University Animal Care and Use committee and followed the guidelines set forth by the Guide for the Care and Use of Laboratory Animals. […] Whole cell recordings were made from visually identified, fluorescence-labeled SST-INs in layer V of PFC slices under the upright microscope. […] Excitatory postsynaptic currents (EPSCs) were recorded from layer V SST-INs at a holding potential of −80 mV and evoked by electrical stimulation (100 μs duration, applied every 15 s) through a concentric bipolar stimulating electrode placed around 100–150 μm from the recorded cell. The holding potential of −80 mV under voltage clamp is closed to the calculated reversal potential of Cl^– and thus the EPSCs recorded in the present studies had minimal GABAA-mediated component. Electrical stimulation applied near the recorded cell in the cortex presumably activates the local neurons preferentially. […] Data were analyzed using Clampfit 10 (Molecular Devices), Excel (Microsoft), and Prism (GraphPad Software), and presented as mean ± SEM. […]

T1 sequence (P35400 35-915): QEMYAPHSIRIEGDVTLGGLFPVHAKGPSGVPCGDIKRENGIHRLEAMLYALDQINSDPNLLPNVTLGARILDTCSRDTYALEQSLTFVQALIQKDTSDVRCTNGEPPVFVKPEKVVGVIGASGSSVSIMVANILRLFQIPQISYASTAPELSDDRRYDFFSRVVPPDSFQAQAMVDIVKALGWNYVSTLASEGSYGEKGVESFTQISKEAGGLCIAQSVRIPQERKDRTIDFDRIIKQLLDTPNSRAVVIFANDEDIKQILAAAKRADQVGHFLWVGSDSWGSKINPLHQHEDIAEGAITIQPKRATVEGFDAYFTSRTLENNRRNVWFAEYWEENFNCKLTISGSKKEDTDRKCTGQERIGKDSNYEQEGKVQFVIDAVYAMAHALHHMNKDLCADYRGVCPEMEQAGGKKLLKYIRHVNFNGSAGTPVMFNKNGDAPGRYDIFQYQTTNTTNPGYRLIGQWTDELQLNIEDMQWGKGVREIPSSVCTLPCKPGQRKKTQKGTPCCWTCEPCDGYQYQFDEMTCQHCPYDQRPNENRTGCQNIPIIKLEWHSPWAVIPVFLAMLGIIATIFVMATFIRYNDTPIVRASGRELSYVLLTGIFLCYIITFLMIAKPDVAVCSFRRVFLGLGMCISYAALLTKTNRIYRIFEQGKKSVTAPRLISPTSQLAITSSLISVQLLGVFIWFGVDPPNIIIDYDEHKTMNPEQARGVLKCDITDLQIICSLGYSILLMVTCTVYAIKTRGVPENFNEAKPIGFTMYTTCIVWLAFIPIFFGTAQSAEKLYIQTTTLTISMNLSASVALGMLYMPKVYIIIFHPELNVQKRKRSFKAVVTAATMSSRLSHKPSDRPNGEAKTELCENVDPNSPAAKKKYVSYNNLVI

Question: How did the pEC50 (rat mGlu7; agonist alone (DMSO row of Table 2)) turn out when `N[C@@H](CCP(=O)(O)O)C(=O)O` [L-AP4, L-2-amino-4-phosphonobutyric acid, reference compound] was run?
Answer: The pEC50 was 3.71.

Question: What about the pEC50 (rat mGlu7; agonist alone (DMSO row of Table S1)) of the same molecule?
Answer: The pEC50 was 3.62.

Question: And the “effect on eEPSC amplitude” value [1]?
Answer: Its value is “reduced eEPSC amplitude”.
